Test results from doi:10.1101/2025.02.17.638454, “Synergistic RAS-MAPK and AKT Activation in MYC-Driven Tumors via Adjacent PVT1 Rearrangements” (bioRxiv, 2025).
No end group written: not given here.

Experiments:
KRAS dimerization = test: Acceptor photobleaching FRET of CFP-KRAS/YFP-KRAS in D458; format: cell-based; settings: shRNA1.PVT1ts D458 with doxycycline-induced HNB; n=10, one-way ANOVA
Description: pcDNA3.1 CFP-KRAS (#112717) and pcDNA3.1 YFP-KRAS (#112718) were purchased from Addgene. The plasmids were co-transfected into D458 cells in a 35 mm cell culture dish with glass bottom. The cells were imaged live 48 hours after transfection on the Nikon Super Resolution Confocal Microscope. CFP was excited using 405–445nm laser and YFP was excited using the 514 nm laser. YFP was photobleached at 80% power for 1 minute and the CFP and YFP were imaged after photobleaching using the respective laser and filters. The images were analyzed in Fiji, ImageJ. […]
bioRxiv preprint doi: https://doi.org/10.1101/2025.02.17.638454; this version posted February 22, 2025. The copyright holder for this preprint (which was not certified by peer review) is the author/funder, who has granted bioRxiv a license to display the preprint in perpetuity. It is made available under a CC-BY 4.0 International license .
Supplementary Figure 22: HNB regulates KRAS dimerization (A) Schematic representation of KRAS dimerization using acceptor photobleaching FRET assay. (B) Schematic representation of KRAS dimerization on knocking down HNB using shRNA1-PVT1ts. (C) Representative images showing signals for CFP-KRAS and YFP-KRAS. […]
Images were taken at 60X oil; the scale bar is 10µm. […] (p-value calculated by one-way ANOVA, n=10). […] (p-value calculated by one-way ANOVA, n=10). […]

MYC = test: Western blot of MYC in SK-PN-DW; format: cell-based, human; settings: si.CircPVT1 vs si.Ctrl, n=3, unpaired t test, 0.0049
Description: For whole-cell lysate, the cell pellet was resuspended in RIPA buffer (Cell Signaling Technologies, Danvers, MA) supplemented with a protease inhibitor cocktail (Cell Signaling Technologies) and incubated on ice for 20 minutes. The lysate was then centrifuged at 14,000 revolutions/minute for 10 minutes at 4°C, and the supernatant was harvested. Protein concentration was quantified by BCA Protein Assay Kit (Thermo Fisher Scientific) as per kit protocol. Next, 20 μg of whole-cell lysate was electrophoresed on a 4%–20% gradient polyacrylamide gel with SDS (Bio-Rad, Hercules, CA) and electroblotted onto polyvinylidene difluoride membranes (Bio-Rad). Membranes were blocked in Tris-buffered saline with 5% nonfat milk and 0.1% Tween and probed with antibodies. Bound proteins were detected with horseradish-peroxidase–conjugated secondary antibodies (Cell Signaling Technologies) and SuperSignal West Femto (Thermo Fisher Scientific). […]

HALLMARK_MYC_TARGETS = test: GSEA MYC targets, COLO320DM; format: cell-based, human; settings: si.CircPVT1 vs si.Ctrl
Description: RNAseq processing: Raw reads were mapped to the hg19 human reference genome using the STAR aligner (v.2.5.0a) 66. PCR-duplicated reads and low mapping quality reads (MQ score below 20) were removed using Picard tools and SAMtools, respectively. Aligned reads were counted using htseq-count (v.0.6.1p1) 69 and normalized according to size factors method from DESeq2 70. We used fold change ≥2 and FDR <0.05 as the determination of differentially expressed genes (DEG). […]
Supplementary Figure 9: Gene set enrichment analysis scores (GSEA) analysis for MYC targets genes in COLODM320 (A,B) and SK-PN-DW (C,D) treated with si.CircPVT 1. si.Ctrl was used as control . n=3, for each treatment condition .
(also on this page, place not known: Enrichment Score Enrichment Score si.CircPVT1. control. condition. Enrichment Score Enrichment Score .CC-BY licenseavailable preprintthis https://doi.org/10.1101/2025.02.17.638454doi:) […]

| Substance | CFP (donor) fluorescence after photobleaching of YFP (KRAS dimerization) | MYC protein (MYC) | NES, HALLMARK_MYC_TARGETS_V1 (HALLMARK_MYC_TARGETS; n=3, Padj = 0.009) | NES, HALLMARK_MYC_TARGETS_V2 (HALLMARK_MYC_TARGETS; n=3, Padj = 0.017) |
| --- | --- | --- | --- | --- |
| MKTQLGAVKGFLHV [HNB] | mitigated the augmented CFP fluorescence |  |  |  |
| si.CircPVT1: siRNA targeting the junction sequence of CircPVT1, 5’-UGGGCUUGAGGCCUGAUCUUU-3’ (other strand not given here) |  | significant reduction of MYC protein | -1.990 | -1.733 |
